Experimental data reported in PMC7826790, “Glucose 6-Phosphate Dehydrogenase from Trypanosomes: Selectivity for Steroids and Chemical Validation in Bloodstream Trypanosoma brucei” (Molecules, 2021).
Like-named read-outs stand apart in the source and are kept apart here.

Legend:
T. cruzi G6PDH [1] = biological target: T1, T. cruzi G6PDH (Trypanosoma cruzi, UniProt Q4E0B2); assay: biochemical; format: biochemical
Description: (§1) E. coli Tuner (DE3) cells were transformed with the pET28a (+) and pHis constructs encoding for N-terminally hexa histidine-tagged TcG6PDHL and HsG6PDH, respectively, and grown overnight in LB medium with […] and […], respectively. […] Thereafter, the cultures were incubated for 20 h at 25 °C and 170 rpm. Cells were harvested by centrifugation (5000× g, 10 min, 4 °C), resuspended in buffer A (50 mM Tris, pH of 8.0, 500 mM NaCl and 5 mM MgCl2) containing a complete™ Protease Inhibitor Cocktail prepared as indicated by the provider (Sigma-Aldrich-Merck, Germany); afterwards, we added 1 mg/mL of lysozyme and incubated the cells for 1 h at 4 °C. […] Protein concentration was determined from the absorbance values at 280 nm and the corresponding theoretical absorbance coefficients.
All reactions were performed in 50 mM Tris (pH 7.5) with 5 mM MgCl2 and 250 mM NaCl in a final volume of 500 µL. […] For each enzyme, a control reaction in the presence of 1% (v/v) DMSO was run. Stock and working solutions of compounds were prepared in 100% (v/v) DMSO. […] The initial velocities were calculated from the first 45 s of the reaction and normalized to the corresponding enzyme control. All measurements were performed at least in triplicate using a Cary 50 Bio spectrophotometer (Agilent Technologies, Santa Clara, CA, USA) at RT. The initial rates were determined with the Origin Pro 8.0 software (OriginLab Corporation, Northampton, MA, USA), and the IC50 values were calculated by nonlinear regression using the GraphPad Prism 5.0 software (GraphPad Inc., San Diego, CA, USA).

[2] = test system: T. cruzi epimastigotes (strain DM28); assay: Cell viability of T. cruzi epimastigotes (propidium iodide, flow cytometry); conditions: 72 h; for cytotoxicity at 50 µM: read-out: % Cytotoxicity (50 µM) T. Cruzi Epimastigote Form, 50 µM, 72 h
Description: T. cruzi epimastigotes (strain DM28) were grown at 28 °C in LIT medium supplemented with 10% (v/v) Fetal Bovine Serum (FBS; GIBCO®), 7.5 mM hemin and antibiotics (penicillin 10 U/mL– streptomycin 10 µg/mL). […] Thereafter, 200 µL from each well were transferred to individual cytometer tubes.
EC50 values were obtained from the corresponding concentration/response plots fitted to a sigmoidal Hill equation or extrapolated from nonlinear fitting equations. The errors were calculated using error propagations and are expressed as S.D. estimated as σ^(n−1).

[3] = test system: Bloodstream T. b. brucei (strain 427- cell line 514-1313); assay: Cell viability of bloodstream T. b. brucei (bioluminescent assay); format: cell-based, Trypanosoma brucei brucei; conditions: for EC50: 24 h incubation, read-out: EC50 T. brucei Bloodstream Form; for Selectivity Index (CC50 for murine macrophages/EC50 for T. brucei): DHEA: Hek293T CC50, Conessine: L6 CC50
Description: Parasite viability was performed as described in [72]. […] Thereafter, 200 µL from each well were transferred to a 96-well black plate and incubated with 20 µL of a solution containing: 1.5 mg/mL luciferin in PBS glucose 1% (w/v) and Triton X-100.

[4] = Cytotoxicity to murine macrophages (WST-1); format: cell-based; conditions: mouse, J774 murine macrophage cells, read-out: CC50 Murine Macrophage (Cell Line J774)
Description: (§2) Cell viability was assessed using the WST-1 reagent.
(§3) EC50 values were obtained from the corresponding concentration/response plots fitted to a sigmoidal Hill equation or extrapolated from nonlinear fitting equations.

human G6PDH [5] = biological target: T2, human G6PDH (Homo sapiens, UniProt P11413); assay: G6PDH enzymatic assay, recombinant human G6PDH (NADPH formation at 340 nm); format: biochemical, H. sapiens; conditions: for inhibition at 100 µM: read-out: % inhibition of human G6PDH; for inhibition of human G6PDH at highest concentration: 100 µM
T2 construct: hexa-histidine (His6) (N); made in house; host or cells: E. coli Tuner (DE3), pHis vector
Description: as §1, with “°C. Cells were further lysed by three cycles of sonication (45% amplitude, 2 s pulse on/off, for 1 min) using a macrotip in a Branson Digital Sonifier 450 (Marshall Scientific, Hampton, VA, USA) and debris was removed by centrifugation at 27,000× g for 45 min at 4 °C and filtrated through a 0.45 µm filter (Millipore-Merck, Darmstadt, Germany).” for “°C.”
G6PDH activity was determined at room temperature (RT) by monitoring NADPH (ε340 = 6220 M^−1 cm^−1) formation at 340 nm. All reactions were performed in 50 mM Tris (pH 7.5) with 5 mM MgCl2 and 250 mM NaCl in a final volume of 500 µL. The reactions were started by the addition of 700 µM NADP^+ and 6 mM G6P for TcG6PDH or by the addition of 250 µM NADP^+ and 1 mM G6P for the human enzyme. For each enzyme, a control reaction in the presence of 1% (v/v) DMSO was run. Stock and working solutions of compounds were prepared in 100% (v/v) DMSO. […] The initial velocities were calculated from the first 45 s of the reaction and normalized to the corresponding enzyme control. All measurements were performed at least in triplicate using a Cary 50 Bio spectrophotometer (Agilent Technologies, Santa Clara, CA, USA) at RT. The initial rates were determined with the Origin Pro 8.0 software (OriginLab Corporation, Northampton, MA, USA), and the IC50 values were calculated by nonlinear regression using the GraphPad Prism 5.0 software (GraphPad Inc., San Diego, CA, USA).

[6] = test system: Bloodstream T. b. brucei (strain 427- cell line 514-1313); parameters: method as in PMID 28684718; conditions: read-out: EC50 T. brucei Bloodstream Form, cited from earlier work
L. mexicana G6PDH = conditions: cited from earlier work
[7] = test system: G6PDH in T. cruzi strain CL Brenner epimastigotes; conditions: 24 h
human G6PDH [8] = biological target: T2, human G6PDH; parameters: method as in PMID 22506561; conditions: read-out: IC50 H. sapiens G6PDH; cited from earlier work
T. cruzi G6PDH [9] = biological target: T1, T. cruzi G6PDH; conditions: read-out: IC50 T. cruzi G6PDH, cited from earlier work
[10] = test system: mammalian L6 cell line from rat skeletal myoblasts; parameters: method as in PMID 28684718; conditions: printed in the macrophage column; read-out: CC50 against mammalian L6 cell line; cited from earlier work
[11] = test system: Bloodstream T. b. brucei expressing the redox biosensor hGrxroGFP2; assay: Redox reporter assay (hGrx1-roGFP2 biosensor, flow cytometry); format: cell-based, Trypanosoma brucei brucei
Description: Bloodstream T. b. brucei expressing the redox biosensor hGrxroGFP2 was grown as described elsewhere. […] Next, 50 µL from each well were transferred to a 96-well plate, containing 100 µL of sterile PBS with glucose 1% (w/v). […] GFP fluorescence (filter λem = 530/40 nm) was only analyzed for viable cells (PI negative). The data were processed and analyzed with the C6Accuri software. Samples were analyzed in triplicate and the error is expressed as S.D.

Hek293T = conditions: read-out: CC50 against Hek293T; printed in the macrophage column; cited from earlier work
[12] = test system: Murine macrophages (cell line J774); assay: Cytotoxicity to murine macrophages (WST-1); format: cell-based; conditions: 24 h, read-out: CC50 Murine Macrophage (Cell Line J774)
Description: as §2, §3

[13] = recombinant human G6PDH, 250 µM NADP+, 1 mM G6P, RT, read-out: IC50 H. sapiens G6PDH

T2 sequence (P11413 whole entry): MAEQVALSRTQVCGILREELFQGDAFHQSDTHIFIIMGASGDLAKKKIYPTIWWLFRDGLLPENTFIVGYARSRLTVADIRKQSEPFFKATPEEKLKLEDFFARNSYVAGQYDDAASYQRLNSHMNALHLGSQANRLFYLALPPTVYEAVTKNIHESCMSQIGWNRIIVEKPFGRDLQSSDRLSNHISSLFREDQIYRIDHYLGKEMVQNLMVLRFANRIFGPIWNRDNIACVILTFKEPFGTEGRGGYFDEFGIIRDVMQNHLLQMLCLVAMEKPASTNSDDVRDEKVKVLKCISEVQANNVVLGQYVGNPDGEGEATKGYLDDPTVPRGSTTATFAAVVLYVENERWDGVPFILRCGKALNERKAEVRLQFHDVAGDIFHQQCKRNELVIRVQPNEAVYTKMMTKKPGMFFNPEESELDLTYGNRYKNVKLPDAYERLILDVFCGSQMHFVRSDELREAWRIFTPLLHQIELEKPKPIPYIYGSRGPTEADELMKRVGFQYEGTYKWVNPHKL
T1 sequence (Q4E0B2 entry or part of it): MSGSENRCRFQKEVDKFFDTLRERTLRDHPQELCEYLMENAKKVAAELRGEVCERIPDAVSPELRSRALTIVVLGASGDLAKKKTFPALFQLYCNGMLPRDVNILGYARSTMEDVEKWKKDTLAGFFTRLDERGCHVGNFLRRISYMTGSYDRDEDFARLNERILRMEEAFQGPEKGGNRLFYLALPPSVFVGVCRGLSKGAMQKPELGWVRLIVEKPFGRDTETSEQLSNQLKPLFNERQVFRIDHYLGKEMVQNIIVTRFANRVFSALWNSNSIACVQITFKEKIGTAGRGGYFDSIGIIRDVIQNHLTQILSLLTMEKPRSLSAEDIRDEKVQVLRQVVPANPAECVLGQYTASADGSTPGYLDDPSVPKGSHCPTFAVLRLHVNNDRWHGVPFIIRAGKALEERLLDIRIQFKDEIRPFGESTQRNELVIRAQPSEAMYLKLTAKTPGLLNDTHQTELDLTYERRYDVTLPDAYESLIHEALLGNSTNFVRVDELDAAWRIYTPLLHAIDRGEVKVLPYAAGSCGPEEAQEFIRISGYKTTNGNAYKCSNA

CC(=O)O[C@H]1CC[C@@]2(C)C(=CC[C@@H]3[C@@H]2CC[C@]2(C)C(=O)[C@H](Br)C[C@@H]32)C1 [Compound 5]
IC50 (T. cruzi G6PDH [1]): 0.079 ± 0.01 µM | cytotoxicity at 50 µM ([2]; Trypanosoma cruzi): 30.9 ± 2.5% | EC50 ([3]; Trypanosoma brucei, 24 h): 18 ± 3 µM | CC50 at 24 h [4]: 39 ± 3 µM | IC50 (human G6PDH [5]): > 100 µM | inhibition at 100 µM (human G6PDH [5]): 0%

C[C@]12CC[C@H](O)C[C@@H]1CC[C@@H]1[C@@H]2CC[C@]2(C)C(=O)CC[C@@H]12 [EA, Epiandrosterone]
EC50 ([6]; footnote c): 36.5 ± 3.6 µM | inhibition of L. mexicana G6PDH (L. mexicana G6PDH): refractory | G6PDH specific activity in cell extracts ([7]; 25 μM EA): 0.12 U/mg | G6PDH specific activity in cell extracts ([7]; 100 μM EA): 0.09 U/mg | IC50 (human G6PDH [8]): ~10 µM | IC50 (T. cruzi G6PDH [9]; recombinant TcG6PDH): 3 ± 0.4 µM

CC(=O)O[C@H]1CC[C@@]2(C)[C@@H](CC[C@@H]3[C@@H]2CC[C@]2(C)C(=O)[C@H](Br)C[C@@H]32)C1 [Compound 2]
IC50 (T. cruzi G6PDH [1]): 0.11 ± 0.02 µM | cytotoxicity at 50 µM ([2]; Trypanosoma cruzi): 64 ± 4.1% | EC50 ([3]; Trypanosoma brucei, 24 h): 5.3 ± 0.4 µM | CC50 at 24 h [4]: 42 ± 1 µM | IC50 (human G6PDH [5]): > 100 µM | inhibition at 100 µM (human G6PDH [5]): 0%

CC(=O)O[C@H]1CC[C@@]2(C)C(=CC[C@@H]3[C@@H]2CC[C@]2(C)C(=O)[C@@H](Br)C[C@@H]32)C1 [Compound 6]
IC50 (T. cruzi G6PDH [1]): > 50 µM | % Cytotoxicity (50 µM) T. Cruzi Epimastigote Form [2]: 76.2 ± 0.8% | cytotoxicity at 50 µM ([2]; Trypanosoma cruzi): 76% | EC50 ([3]; Trypanosoma brucei, 24 h): 5.3 ± 0.5 µM | CC50 at 24 h [4]: 4.5 ± 0.4 µM | IC50 (human G6PDH [5]): > 100 µM | inhibition of human G6PDH at highest concentration (human G6PDH [5]): inactive

C[C@]12CC[C@H](O)CC1=CC[C@@H]1[C@@H]2CC[C@]2(C)C(=O)[C@H](Br)C[C@@H]12 [Compound 4]
cytotoxicity at 50 µM ([2]; Trypanosoma cruzi): 6.4 ± 1.6% | EC50 ([3]; Trypanosoma brucei, 24 h): 7.5 ± 0.3 µM | CC50 at 24 h [4]: 19 ± 3 µM | IC50 (human G6PDH [5]; [13]): 48 ± 2.6 µM

C[C@]12CC[C@H](O)C[C@@H]1CC[C@@H]1[C@@H]2CC[C@]2(C)C(=O)[C@H](Br)C[C@@H]12 [Compound 1, 16α-bromo-epiandrosterone]
% Cytotoxicity (50 µM) T. Cruzi Epimastigote Form [2]: 14.5 ± 5.3% | cytotoxicity at 50 µM ([2]; Trypanosoma cruzi): 15% | EC50 ([3]; Trypanosoma brucei, 24 h): 1.9 ± 0.2 µM | CC50 at 24 h [4]: 8.8 ± 1 µM

C[C@H]1[C@H]2CC[C@H]3[C@@H]4CC=C5C[C@@H](N(C)C)CC[C@]5(C)[C@H]4CC[C@]23CN1C [Conessine, reference compound]
EC50 ([6]; footnote e): 0.42 ± 0.01 µM | CC50 [10]: 61.2 µM | inhibition of T. cruzi G6PDH at highest concentration (T. cruzi G6PDH [1]; 100 µM): did not inhibit | IC50 (T. cruzi G6PDH [1]; recombinant TcG6PDH, 700 µM NADP+, 6 mM G6P, RT, read-out: IC50 T. cruzi G6PDH): > 100 µM | Selectivity Index (CC50 for murine macrophages/EC50 for T. brucei) [3]: 145.7 | induction of oxidative stress in bloodstream trypanosomes [11]: did not induce oxidative stress | inhibition of human G6PDH at highest concentration (human G6PDH [5]): did not inhibit | IC50 (human G6PDH [5]; [13]): > 100 µM

C[C@]12CC[C@H](O)CC1=CC[C@@H]1[C@@H]2CC[C@]2(C)C(=O)C(O)C[C@@H]12 (stereo partly shown) [Compound 7]
cytotoxicity at 50 µM ([2]; Trypanosoma cruzi): 3.9 ± 0.7% | EC50 [3]: > 24 µM | EC50 ([3]; Trypanosoma brucei, 24 h): 24 to 44 µM | CC50 at 24 h [4]: > 24 µM | IC50 (human G6PDH [8]): 15.8 ± 3.3 µM

C[C@]12CC[C@H](O)CC1=CC[C@@H]1[C@@H]2CC[C@]2(C)C(=O)CC[C@@H]12 [DHEA, dehydroepiandrosterone]
EC50 ([6]; footnote c): 43.8 ± 2 µM | inhibition of L. mexicana G6PDH (L. mexicana G6PDH): refractory | CC50 (Hek293T): 25 ± 13 µM | IC50 (human G6PDH [8]): ~10 µM | IC50 (T. cruzi G6PDH [9]; TcG6PDH): 21.5 ± 0.5 µM

CC(=O)O[C@H]1CC[C@@]2(C)[C@@H](CC[C@@H]3[C@@H]2CC[C@]2(C)C(=O)[C@@H](Br)C[C@@H]32)C1 [Compound 3]
IC50 (T. cruzi G6PDH [1]): 1.5 ± 0.2 µM | % Cytotoxicity (50 µM) T. Cruzi Epimastigote Form [2]: 73.9 ± 3.4% | cytotoxicity at 50 µM ([2]; Trypanosoma cruzi): 74% | EC50 ([3]; Trypanosoma brucei, 24 h): 4.8 ± 0.5 µM | CC50 at 24 h [4]: 0.96 µM | CC50 [12]: 1 ± 0.1 µM | IC50 (human G6PDH [5]): > 100 µM | inhibition of human G6PDH at highest concentration (human G6PDH [5]): inactive

CN(C)C(=O)/N=N/C(=O)N(C)C [diamide]
biosensor oxidation ([11]; 250 µM, 20 min): 54%

CC1CS(=O)(=O)CCN1/N=C/c1ccc([N+](=O)[O-])o1 (stereo not shown) [Nifurtimox, reference compound]
cytotoxicity at 24 µM ([2]; Trypanosoma cruzi, read-out: % Cytotoxicity T. Cruzi Epimastigote Form, at 24 µM, 72 h): 46 ± 1.9% | Selectivity Index (CC50 for murine macrophages/EC50 for T. brucei) [3]: 23.3 | EC50 ([3]; Trypanosoma brucei, 24 h): 6 ± 0.4 µM | CC50 at 24 h [4]: 140 ± 2 µM
